Test results published in the NIST ThermoML archive (doi:10.1016/j.jct.2018.02.003).
“And” between values parts separate entries of the source, which are not always exact repeats. Identical values can stand only once. ± gives the expanded uncertainty stated by the source.

Settings: Liquid; for speed of sound: Frequency=3 MHz, Single path-length method; for mass density: Vibrating tube method

COC(F)(C(F)(F)C(F)(F)F)C(F)(C(F)(F)F)C(F)(F)F (configuration not stated)
Settings	mass density	speed of sound [m/s]
293.15 K, 100 kPa	1668.2 ± 0.8 kg/m3 and 1668.43 ± 0.98 kg/m3	644.5 ± 1.1
293.15 K, 1000 kPa	1670.8 ± 0.8 kg/m3	–
293.15 K, 5000 kPa	1681.9 ± 0.9 kg/m3	–
293.15 K, 10000 kPa	1694.8 ± 1 kg/m3	–
293.15 K, 15000 kPa	1706.6 ± 1.1 kg/m3	–
293.15 K, 20000 kPa	1717.6 ± 1.2 kg/m3	–
293.15 K, 25000 kPa	1727.9 ± 1.3 kg/m3	–
293.15 K, 30000 kPa	1737.7 ± 1.4 kg/m3	–
293.15 K, 35000 kPa	1746.9 ± 1.5 kg/m3	–
293.15 K, 40000 kPa	1755.6 ± 1.7 kg/m3	–
293.15 K, 45000 kPa	1764 ± 1.8 kg/m3	–
293.15 K, 50000 kPa	1772 ± 2 kg/m3	–
293.15 K, 55000 kPa	1779.7 ± 2.2 kg/m3	–
293.15 K, 60000 kPa	1787 ± 2.3 kg/m3	–
293.15 K, 65000 kPa	1794.1 ± 2.5 kg/m3	–
293.15 K, 70000 kPa	1800.9 ± 2.7 kg/m3	–
293.15 K, 80000 kPa	1814 ± 3 kg/m3	–
293.15 K, 90000 kPa	1826.3 ± 3.4 kg/m3	–
293.15 K, 100000 kPa	1837.8 ± 3.8 kg/m3	–
293.15 K, 110000 kPa	1848.8 ± 4.1 kg/m3	–
293.15 K, 120000 kPa	1859.3 ± 4.5 kg/m3	–
293.15 K, 130000 kPa	1869.3 ± 4.9 kg/m3	–
293.15 K, 140000 kPa	1878.8 ± 5.3 kg/m3	–
298.15 K, 100 kPa	1656.7 ± 0.8 kg/m3 and 1656.79 ± 0.98 kg/m3	629.44 ± 1.1
298.15 K, 1000 kPa	1659.4 ± 0.8 kg/m3	–
298.15 K, 5000 kPa	1671 ± 0.9 kg/m3	–
298.15 K, 10000 kPa	1684.4 ± 1 kg/m3	–
298.15 K, 15000 kPa	1696.6 ± 1 kg/m3	–
298.15 K, 20000 kPa	1708 ± 1.2 kg/m3	–
298.15 K, 25000 kPa	1718.6 ± 1.3 kg/m3	–
298.15 K, 30000 kPa	1728.6 ± 1.4 kg/m3	–
298.15 K, 35000 kPa	1738.1 ± 1.5 kg/m3	–
298.15 K, 40000 kPa	1747.1 ± 1.6 kg/m3	–
298.15 K, 45000 kPa	1755.6 ± 1.8 kg/m3	–
298.15 K, 50000 kPa	1763.8 ± 2 kg/m3	–
298.15 K, 55000 kPa	1771.7 ± 2.1 kg/m3	–
298.15 K, 60000 kPa	1779.3 ± 2.3 kg/m3	–
298.15 K, 65000 kPa	1786.5 ± 2.5 kg/m3	–
298.15 K, 70000 kPa	1793.4 ± 2.6 kg/m3	–
298.15 K, 80000 kPa	1806.7 ± 3 kg/m3	–
298.15 K, 90000 kPa	1819.1 ± 3.4 kg/m3	–
298.15 K, 100000 kPa	1831 ± 3.7 kg/m3	–
298.15 K, 110000 kPa	1842 ± 4.1 kg/m3	–
298.15 K, 120000 kPa	1852.7 ± 4.5 kg/m3	–
298.15 K, 130000 kPa	1862.8 ± 4.9 kg/m3	–
298.15 K, 140000 kPa	1872.5 ± 5.3 kg/m3	–
303.15 K, 100 kPa	1645.11 ± 0.98 kg/m3	614.76 ± 1.1
313.15 K, 100 kPa	1621.3 ± 0.8 kg/m3 and 1621.41 ± 0.97 kg/m3	585.65 ± 1.1
313.15 K, 1000 kPa	1624.5 ± 0.8 kg/m3	–
313.15 K, 5000 kPa	1637.7 ± 0.9 kg/m3	–
313.15 K, 10000 kPa	1652.7 ± 0.9 kg/m3	–
313.15 K, 15000 kPa	1666.3 ± 1 kg/m3	–
313.15 K, 20000 kPa	1678.8 ± 1.1 kg/m3	–
313.15 K, 25000 kPa	1690.4 ± 1.2 kg/m3	–
313.15 K, 30000 kPa	1701.4 ± 1.4 kg/m3	–
313.15 K, 35000 kPa	1711.6 ± 1.5 kg/m3	–
313.15 K, 40000 kPa	1721.2 ± 1.6 kg/m3	–
313.15 K, 45000 kPa	1730.5 ± 1.7 kg/m3	–
313.15 K, 50000 kPa	1739.2 ± 1.9 kg/m3	–
313.15 K, 55000 kPa	1747.6 ± 2.1 kg/m3	–
313.15 K, 60000 kPa	1755.5 ± 2.2 kg/m3	–
313.15 K, 65000 kPa	1763.3 ± 2.4 kg/m3	–
313.15 K, 70000 kPa	1770.7 ± 2.6 kg/m3	–
313.15 K, 80000 kPa	1784.8 ± 2.9 kg/m3	–
313.15 K, 90000 kPa	1797.9 ± 3.3 kg/m3	–
313.15 K, 100000 kPa	1810.2 ± 3.6 kg/m3	–
313.15 K, 110000 kPa	1822 ± 4 kg/m3	–
313.15 K, 120000 kPa	1832.9 ± 4.4 kg/m3	–
313.15 K, 130000 kPa	1843.5 ± 4.8 kg/m3	–
313.15 K, 140000 kPa	1853.5 ± 5.2 kg/m3	–
323.15 K, 100 kPa	1597.04 ± 0.97 kg/m3	557.04 ± 1.1
333.15 K, 100 kPa	1572.7 ± 0.8 kg/m3 and 1572.8 ± 0.96 kg/m3	529.01 ± 1.1
333.15 K, 1000 kPa	1576.5 ± 0.8 kg/m3	–
333.15 K, 5000 kPa	1592.3 ± 0.9 kg/m3	–
333.15 K, 10000 kPa	1609.9 ± 0.9 kg/m3	–
333.15 K, 15000 kPa	1625.7 ± 1 kg/m3	–
333.15 K, 20000 kPa	1639.8 ± 1.1 kg/m3	–
333.15 K, 25000 kPa	1653 ± 1.2 kg/m3	–
333.15 K, 30000 kPa	1665.2 ± 1.3 kg/m3	–
333.15 K, 35000 kPa	1676.5 ± 1.4 kg/m3	–
333.15 K, 40000 kPa	1687.3 ± 1.5 kg/m3	–
333.15 K, 45000 kPa	1697.5 ± 1.7 kg/m3	–
333.15 K, 50000 kPa	1707 ± 1.8 kg/m3	–
333.15 K, 55000 kPa	1716.1 ± 2 kg/m3	–
333.15 K, 60000 kPa	1724.7 ± 2.1 kg/m3	–
333.15 K, 65000 kPa	1733.1 ± 2.3 kg/m3	–
333.15 K, 70000 kPa	1741 ± 2.5 kg/m3	–
333.15 K, 80000 kPa	1756.1 ± 2.8 kg/m3	–
333.15 K, 90000 kPa	1770.2 ± 3.2 kg/m3	–
333.15 K, 100000 kPa	1783.3 ± 3.5 kg/m3	–
333.15 K, 110000 kPa	1795.6 ± 3.9 kg/m3	–
333.15 K, 120000 kPa	1807.3 ± 4.3 kg/m3	–
333.15 K, 130000 kPa	1818.5 ± 4.6 kg/m3	–
333.15 K, 140000 kPa	1829.1 ± 5 kg/m3	–
353.15 K, 100 kPa	1521.7 ± 0.8 kg/m3	–
353.15 K, 1000 kPa	1526.5 ± 0.8 kg/m3	–
353.15 K, 5000 kPa	1545.6 ± 0.8 kg/m3	–
353.15 K, 10000 kPa	1566.5 ± 0.9 kg/m3	–
353.15 K, 15000 kPa	1584.7 ± 1 kg/m3	–
353.15 K, 20000 kPa	1601 ± 1.1 kg/m3	–
353.15 K, 25000 kPa	1615.8 ± 1.2 kg/m3	–
353.15 K, 30000 kPa	1629.5 ± 1.3 kg/m3	–
353.15 K, 35000 kPa	1642.1 ± 1.4 kg/m3	–
353.15 K, 40000 kPa	1653.7 ± 1.5 kg/m3	–
353.15 K, 45000 kPa	1664.8 ± 1.6 kg/m3	–
353.15 K, 50000 kPa	1675.2 ± 1.7 kg/m3	–
353.15 K, 55000 kPa	1685.1 ± 1.9 kg/m3	–
353.15 K, 60000 kPa	1694.5 ± 2.1 kg/m3	–
353.15 K, 65000 kPa	1703.5 ± 2.2 kg/m3	–
353.15 K, 70000 kPa	1712.1 ± 2.4 kg/m3	–
353.15 K, 80000 kPa	1728.1 ± 2.7 kg/m3	–
353.15 K, 90000 kPa	1743.1 ± 3.1 kg/m3	–
353.15 K, 100000 kPa	1757 ± 3.4 kg/m3	–
353.15 K, 110000 kPa	1770.1 ± 3.8 kg/m3	–
353.15 K, 120000 kPa	1782.5 ± 4.1 kg/m3	–
353.15 K, 130000 kPa	1794.1 ± 4.5 kg/m3	–
353.15 K, 140000 kPa	1805.2 ± 4.9 kg/m3	–
373.15 K, 1000 kPa	1473.5 ± 0.8 kg/m3	–
373.15 K, 5000 kPa	1497.1 ± 0.8 kg/m3	–
373.15 K, 10000 kPa	1521.9 ± 0.9 kg/m3	–
373.15 K, 15000 kPa	1543.1 ± 0.9 kg/m3	–
373.15 K, 20000 kPa	1561.5 ± 1 kg/m3	–
373.15 K, 25000 kPa	1578.3 ± 1.1 kg/m3	–
373.15 K, 30000 kPa	1593.7 ± 1.2 kg/m3	–
373.15 K, 35000 kPa	1607.7 ± 1.3 kg/m3	–
373.15 K, 40000 kPa	1620.4 ± 1.4 kg/m3	–
373.15 K, 45000 kPa	1632.5 ± 1.5 kg/m3	–
373.15 K, 50000 kPa	1643.9 ± 1.7 kg/m3	–
373.15 K, 55000 kPa	1654.6 ± 1.8 kg/m3	–
373.15 K, 60000 kPa	1664.7 ± 2 kg/m3	–
373.15 K, 65000 kPa	1674.3 ± 2.1 kg/m3	–
373.15 K, 70000 kPa	1683.4 ± 2.3 kg/m3	–
373.15 K, 80000 kPa	1700.6 ± 2.6 kg/m3	–
373.15 K, 90000 kPa	1716.5 ± 3 kg/m3	–
373.15 K, 100000 kPa	1731.3 ± 3.3 kg/m3	–
373.15 K, 110000 kPa	1745.1 ± 3.6 kg/m3	–
373.15 K, 120000 kPa	1758.1 ± 4 kg/m3	–
373.15 K, 130000 kPa	1770.3 ± 4.4 kg/m3	–
373.15 K, 140000 kPa	1782 ± 4.7 kg/m3	–
393.15 K, 1000 kPa	1417.2 ± 0.8 kg/m3	–
393.15 K, 5000 kPa	1446.9 ± 0.8 kg/m3	–
393.15 K, 10000 kPa	1476.7 ± 0.9 kg/m3	–
393.15 K, 15000 kPa	1501.4 ± 0.9 kg/m3	–
393.15 K, 20000 kPa	1522.8 ± 1 kg/m3	–
393.15 K, 25000 kPa	1541.5 ± 1.1 kg/m3	–
393.15 K, 30000 kPa	1558.4 ± 1.2 kg/m3	–
393.15 K, 35000 kPa	1573.8 ± 1.3 kg/m3	–
393.15 K, 40000 kPa	1588 ± 1.4 kg/m3	–
393.15 K, 45000 kPa	1601 ± 1.5 kg/m3	–
393.15 K, 50000 kPa	1613.3 ± 1.6 kg/m3	–
393.15 K, 55000 kPa	1624.9 ± 1.7 kg/m3	–
393.15 K, 60000 kPa	1635.8 ± 1.9 kg/m3	–
393.15 K, 65000 kPa	1646 ± 2 kg/m3	–
393.15 K, 70000 kPa	1655.8 ± 2.2 kg/m3	–
393.15 K, 80000 kPa	1674.1 ± 2.5 kg/m3	–
393.15 K, 90000 kPa	1690.9 ± 2.8 kg/m3	–
393.15 K, 100000 kPa	1706.5 ± 3.2 kg/m3	–
393.15 K, 110000 kPa	1721 ± 3.5 kg/m3	–
393.15 K, 120000 kPa	1734.7 ± 3.9 kg/m3	–
393.15 K, 130000 kPa	1747.5 ± 4.2 kg/m3	–
393.15 K, 140000 kPa	1759.7 ± 4.6 kg/m3	–
